The record followed here is patent publication US12577219B2, “Macrolide brefeldin a ester derivatives and use thereof” (OCEAN UNIVERSITY OF CHINA, priority 2019, dated 2026).

The subject of data set [1] is pancreatic cancer PANC-1cells. The data set is described as follows: Cell proliferation assay (CCK-8). In kind it is cell-based, human. To be noted: PANC-1, 72 h. The text has this: (§1) CCK-8 method: The CCK-8 method is a highly sensitive, non-radioactive colorimetric assay for the determination of the number of viable cells in cell proliferation or cytotoxicity assays. The orange formazan dye produced by the bioreduction of CCK-8 by intracellular dehydrogenase is soluble in the cell culture medium, and the amount of formazan dye produced is proportional to the number of living cells. The kit used in this method is the tetrazolium salt-WST-8 (2-(2-methoxy-4-nitrophenyl)-3-(4-nitrophenyl)-5-(2,4-disulfophenyl)-2H-tetrazolium monosodium salt) developed by Dojindo Chemical Research Institute (Dojindo), which is capable of being reduced to a water-soluble formazan dye in the presence of the electronic carrier 1-Methoxy PMS.
(§2) Human cervical cancer Hela cells, pancreatic cancer PANC-1cells, esophageal cancer Eca-109 cells, human leukemia K562 cells, human lung cancer A549 cells, human liver cancer HepG2 cells, human gastric cancer MKN-45 cells, human breast cancer MCF7 cells were cultured in DMEM medium containing 10% FBS (fetal bovine serum), 100 U/mL penicillin and 100 μg/ml streptomycin. Hepatocellular carcinoma cells Bel-7402 were cultured in RPMI-1640 medium containing 10% FBS (fetal bovine serum), 100 U/ml penicillin and 100 μg/ml streptomycin. All cells were placed in a cell culture incubator at 37° C. with 5% CO2. Cells fluid was changed every 3-5 days, and after 80% cell fusion, trypsin digestion and passaging were performed to keep the cells in good logarithmic growth phase.
(§3) All the samples to be tested were dissolved in DMSO.
(§4) Cells in logarithmic growth phase were inoculated in 96-well plates with 5000 cells/well respectively, and after 24 h of incubation, samples were added (final concentrations as shown in the table), and biplicate wells were set up for each sample. The amount of solvent of DMSO was not higher than 2%. After 72 h, 10 μL of CCK-8 solution was added to each well and incubated for 1.5˜3 h at 37° C. The OD value at 450 nm was measured on an plate reader. Inhibition rate (%)=(1−[(OD450 dosed well−OD450 blank well)/(OD450 control well−OD450 blank well)])×100%
(§5) The fitted IC50 values were calculated using the log (inhibitor) vs. response—Variable slop analysis method in GraphPad Prism software.

The test system of data set [2] is esophageal cancer Eca-109 cells. Briefly: Cell proliferation assay (CCK-8). In kind it is cell-based, human. To be noted: Eca-109, 72 h.
Excerpt: as §1, §2, §3, §4, §5

In data set [3] the test system is human gastric cancer MKN-45 cells. Briefly: Cell proliferation assay (CCK-8). In kind it is cell-based. Particulars: MKN-45, 72 h.
Excerpt: as §1, §2, §3, §4, §5

Data set [4] deals with human liver cancer HepG2 cells. The data set is described as follows: Cell proliferation assay (CCK-8). In kind it is cell-based. To be noted: HepG2, 72 h.
Excerpt: as §1, §2, §3, §4, §5

The test system of data set [5] is human leukemia K562 cells. Briefly: Cell proliferation assay (CCK-8). In kind it is cell-based. To be noted: K562, 72 h.
Excerpt: as §1, §2, §3, §4, §5

For data set [6], the system named is human breast cancer MCF7 cells. The data set is described as follows: Cell proliferation assay (CCK-8). To be noted: MCF7, 72 h. In kind it is cell-based.
Excerpt: as §1, §2, §3, §4, §5

Data set [7] concerns Human cervical cancer Hela cells. The data set is described as follows: Cell proliferation assay (CCK-8). In kind it is cell-based. To be noted: 72 h.
Excerpt: as §1, §2, §3, §4, §5

Data set [8] has as its system human lung cancer A549 cells. Briefly: Cell proliferation assay (CCK-8). In kind it is cell-based. Particulars: A549, 72 h.
Excerpt: as §1, §2, §3, §4, §5

A short description of data set [9]: Solubility test (shaker 37° C., 24 h, HPLC). To be noted: for solubility at 24 h: 37 °C, thermodynamic from solid.
Method: The term “solubility” refers to the mass of solute dissolved when a solid substance reaches saturation state in 100 g solvent at a certain temperature.
Methods: Excess BFA and the compounds disclosed herein were added to 10 mL of three solvents, methanol, acetone and 5% DMSO+95% H2O, respectively, and shaken on a shaker at 37° C. at 100 r/min for 24 h. After 24 h, the samples were centrifuged at 15,000 r/min for 15 min to remove the undissolved compounds. The supernatant was filtered using a 0.45 μm membrane filter. The supernatant was appropriately diluted with methanol and contents of the compounds were determined by HPLC method to calculate the solubility.
Data set [10] has as its system Kunming breed mice. The data set is described as follows: Toxicity test after intraperitoneal administration to mice. In kind it is in vivo. To be noted: ip.; for Organ abnormality at anatomy: anatomy on the 14 th day; for Mental condition of the animals after administration: high and low doses; for Deaths after administration: high and low doses (BFA effective amount conversion), 14 d. Here is the method: Objective: Observation of toxic effects of compounds after intraperitoneally administration (ip.) to mice
1) Agents: Compounds disclosed herein were formulated to a suitable concentration.
2) Animals: Kunming breed mice, weight 18-22 g, male. Provided by Jinan Pengyue Laboratory Animal Breeding Co., Ltd. Animal license number: SCXK (Shandong 20140007)
Method: Kunming breed mice, were randomly grouped by weight, 6 mice per group, namely normal control group, BFA high and low dose groups (100 mg/kg and 50 mg/kg, respectively), and high and low dose groups of some compounds disclosed herein (BFA effective amount conversion). […] After 14 d of continuous administration, all the animals were weighed, and the animals were executed to observe whether there were any abnormalities in the organs.

[11] abbreviates: 5% DMSO + 95% H2O, aqueous with cosolvent or surfactant or cyclodextrin.
Setting [12] is: acetone, organic solvent or mixture.
Setting [13] is: methanol, organic solvent or mixture.

≈ marks a conversion by molar mass, not a printed value.

Take `COc1cccc2c1C(=O)c1c(O)c3c(c(O)c1C2=O)C[C@@](O)(C(=O)CO)C[C@@H]3O[C@H]1C[C@H](N)[C@H](O)[C@H](C)O1` [Adriamycin]: the IC50 in data set [1] (Homo sapiens) is less than 0.1 µM; in [2] (Homo sapiens), 0.1 to 1 µM; in data set [3] (Homo sapiens), 0.1 to 1 µM; in data set [4] (Homo sapiens), greater than 10 µM; in data set [5] (Homo sapiens), 1 to 10 µM; in [6] (Homo sapiens), 1 to 10 µM. The IC50 in data set [7] (Homo sapiens) and in data set [8] (Homo sapiens) was 0.1 to 1 µM throughout.
Regarding `C[C@H]1CCC/C=C/[C@@H]2C[C@H](O)C[C@H]2[C@H](O)/C=C/C(=O)O1` [BFA, Brefeldin A], the IC50 in data set [1] is less than 0.1 µM; in data set [2] it was 0.1 to 1 µM; in [3] it was 0.1 to 1 µM; in [4] it was 0.1 to 1 µM; in data set [5], 0.1 to 1 µM; in data set [6], less than 0.1 µM. The IC50 in data set [7] and in data set [8] was 0.1 to 1 µM in each case. The “Solubility, 5% DMSO + 95% H2O” value in data set [9] (5% DMSO + 95% H2O, 37° C., 24 h, x ± s, n = 3) came to 0.085 ± 0.03 mg/mL. In addition, the “Solubility, Acetone” value in [9] (acetone, 37° C., 24 h, x ± s, n = 3) amounted to 3.13 ± 1.24 mg/mL (≈ 11.2 mM). The “Solubility, Methanol” value in data set [9] (methanol, 37° C., 24 h, x ± s, n = 3) turned out to be 3.13 ± 1.24 mg/mL (≈ 11.2 mM).
`C[C@H]1CCC/C=C/[C@@H]2C[C@H](OC(=O)/C=C/c3cccc(F)c3)C[C@H]2[C@H](O)/C=C/C(=O)O1` [Compound 1a, 7-O-(3-fluorocinnamic acid)acyl BFA]: in [10], the “Organ abnormality at anatomy” value is “no significant abnormality in all organs”, the “Mental condition of the animals after administration” value (from here on “Mental condition of the animals”) was “good mental condition” and the Deaths after administration result is listed as “no deaths”.
`C[C@H]1CCC/C=C/[C@@H]2C[C@H](O)C[C@H]2[C@H](OC(=O)/C=C/c2cccc(F)c2)/C=C/C(=O)O1` [Compound 1b, 4-O-(3-fluorocinnamic acid)acyl BFA]: in data set [10], the “Organ abnormality at anatomy” value is reported as “no significant abnormality in all organs”, the “Mental condition of the animals” value is “good mental condition” and the Deaths after administration entry is given as “no deaths”.
Take `C[C@H]1CCC/C=C/[C@@H]2C[C@H](OC(=O)/C=C/c3cccc(F)c3)C[C@H]2[C@H](OC(=O)/C=C/c2cccc(F)c2)/C=C/C(=O)O1` [Compound 1c, 4,7-O-bis(3-fluorocinnamic acid)acyl BFA]: in data set [10], the “Organ abnormality at anatomy” value is given as “no significant abnormality in all organs”, the “Mental condition of the animals” value is reported as “good mental condition” and the Deaths after administration entry was “no deaths”.
In the case of `C[C@H]1CCC/C=C/[C@@H]2C[C@H](O)C[C@H]2[C@H](OC(=O)/C=C/c2ccc3c(c2)OCO3)/C=C/C(=O)O1` [Compound 9b, 4-O-((E)-3-(benzo[d][1,3]dioxa-5-yl)acrylic acid)acyl BFA], the IC50 was 0.1 to 1 µM in data set [1]; 1 to 10 µM in data set [2]; 0.1 to 1 µM in data set [3]; 1 to 10 µM in data set [4]; 0.1 to 1 µM in [5]; 0.1 to 1 µM in [6]. In addition, the IC50 in data set [7] is 1 to 10 µM; in data set [8], 0.1 to 1 µM.
As for `C[C@H]1CCC/C=C/[C@@H]2C[C@H](OC(=O)/C=C/c3ccc(N(C)C)cc3)C[C@H]2[C@H](O)/C=C/C(=O)O1` [Compound 10a, 7-O-(4-dimethylaminocinnamic acid)acyl BFA], in data set [10], the “Organ abnormality at anatomy” value is “no significant abnormality in all organs”, the “Mental condition of the animals” value is given as “good mental condition” and the Deaths after administration entry is “no deaths”.
On to `C[C@H]1CCC/C=C/[C@@H]2C[C@H](O)C[C@H]2[C@H](OC(=O)/C=C/c2ccc(N(C)C)cc2)/C=C/C(=O)O1` [Compound 10b, 4-O-(4-dimethylaminocinnamic acid)acyl BFA], for which, in [10], the “Organ abnormality at anatomy” value is recorded as “no significant abnormality in all organs”, the “Mental condition of the animals” value was “good mental condition” and the Deaths after administration entry is “no deaths”.
Turning to `C[C@H]1CCC/C=C/[C@@H]2C[C@H](OC(=O)/C=C/c3ccc(N(C)C)cc3)C[C@H]2[C@H](OC(=O)/C=C/c2ccc(N(C)C)cc2)/C=C/C(=O)O1` [Compound 10c, 4,7-O-bis(4-dimethylaminocinnamic acid)acyl BFA], in data set [10], the “Organ abnormality at anatomy” value was “no significant abnormality in all organs”, the “Mental condition of the animals” value is “good mental condition” and the Deaths after administration result is on record as “no deaths”.
As to `C[C@H]1CCC/C=C/[C@@H]2C[C@H](OC(=O)/C=C/c3cccnc3)C[C@H]2[C@H](O)/C=C/C(=O)O1` [Compound 16a, 7-O-(3-(pyridine-3-yl)acrylic acid)acyl BFA], in data set [10], the “Organ abnormality at anatomy” value was “no significant abnormality in all organs”, the “Mental condition of the animals” value is listed as “good mental condition” and the Deaths after administration entry is “no deaths”.
`C[C@H]1CCC/C=C/[C@@H]2C[C@H](O)C[C@H]2[C@H](OC(=O)/C=C/c2cccnc2)/C=C/C(=O)O1` [Compound 16b]: in data set [10], the “Organ abnormality at anatomy” value is given as “no significant abnormality in all organs”, the “Mental condition of the animals” value is listed as “good mental condition” and the Deaths after administration entry is “no deaths”.
On to `C[C@H]1CCC/C=C/[C@@H]2C[C@H](OC(=O)/C=C/c3cccnc3)C[C@H]2[C@H](OC(=O)/C=C/c2cccnc2)/C=C/C(=O)O1` [Compound 16c], for which, in data set [10], the “Organ abnormality at anatomy” value is recorded as “no significant abnormality in all organs”, the “Mental condition of the animals” value was “good mental condition” and the Deaths after administration entry is on record as “no deaths”.
In the case of `C[C@H]1CCC/C=C/[C@@H]2C[C@H](OC(=O)/C=C/c3cnc4ccccc4c3)C[C@H]2[C@H](OC(=O)/C=C/c2cnc3ccccc3c2)/C=C/C(=O)O1` [Compound 17c], the IC50 lay within 0.1 to 1 µM in [1]; 1 to 10 µM in data set [2]; 1 to 10 µM in data set [3]; 0.1 to 1 µM in data set [4]; 0.1 to 1 µM in [5]; 0.1 to 1 µM in data set [6]. Further, the concentration for half-maximal inhibition (IC50) in data set [7] and in data set [8] was 1 to 10 µM each time.
`C[C@H]1CCC/C=C/[C@@H]2C[C@H](O)C[C@H]2[C@H](OC(=O)/C=C/c2ccccc2)/C=C/C(=O)O1` [Compound B]: the IC50 in data set [1] (Homo sapiens) was in the range of 0.1 to 1 µM; in data set [2] (Homo sapiens), 1 to 10 µM; in data set [3] (Homo sapiens), 1 to 10 µM; in data set [4] (Homo sapiens) it was 1 to 10 µM; in data set [5] (Homo sapiens), 0.1 to 1 µM; in data set [6] (Homo sapiens), 0.1 to 1 µM. The IC50 in [7] (Homo sapiens) and in data set [8] (Homo sapiens) was 1 to 10 µM throughout. The solubility at 24 h in data set [9] (setting [11]) amounted to 0.22 ± 0.16 mg/mL; in data set [9] (setting [12]), 9.48 ± 3.23 mg/mL (≈ 23.1 mM); in data set [9] (setting [13]) it was 9.41 ± 1.51 mg/mL (≈ 22.9 mM).
For the compound `C[C@H]1CCC/C=C/[C@@H]2C[C@H](OC(=O)/C=C/c3ccccc3)C[C@H]2[C@H](OC(=O)/C=C/c2ccccc2)/C=C/C(=O)O1` [Compound C], the IC50 in [1] (Homo sapiens), in data set [2] (Homo sapiens), in data set [3] (Homo sapiens), in data set [4] (Homo sapiens), in data set [5] (Homo sapiens) and in [6] (Homo sapiens) was 1 to 10 µM each time. The IC50 in [7] (Homo sapiens) and in data set [8] (Homo sapiens) was 1 to 10 µM throughout. Further, the solubility at 24 h in data set [9] (setting [11]) was found to be 0.1 ± 0.23 mg/mL; in data set [9] (setting [12]), 5.36 ± 3.13 mg/mL (≈ 9.91 mM); in data set [9] (setting [13]) it was 5.3 ± 2.51 mg/mL (≈ 9.8 mM).

In general, IC50 refers to the concentration that inhibits the measured activity by half. The low end stands for higher potency, the high end for lower potency. The term solubility denotes the dissolved amount per volume that the medium holds.
